In PubChem BioAssay AID248 (DTP/NCI, 2004):
Where “and” joins values, the source holds several entries; their conditions need not be identical. Identical values can stand only once. Toxic doses and inconclusive results are not listed. Cut-off read from the data, not from the text of the source: active = T/C of 150% or more; inactive = T/C below 125%.

System: L1210 leukemia ip in BDF1 mice, survival T/C
Test: NCI In Vivo Anticancer Drug Screen. Data for tumor model L1210 Leukemia (intraperitoneal) in B6D2F1 (BDF1) mice
Conditions: endpoint: mean survival time, higher = longer survival
How it was run: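 Transplantable tumor model; survival measured in treated vs vehicle control mice. Value = treated/control.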

[1] = dose: 100.0 mg/kg/injection, schedule: Q04DX003 (ip), vehicle: saline
[2] = dose: 200.0 mg/kg/injection, schedule: Q04DX003 (ip), vehicle: saline
[3] = dose: 400.0 mg/kg/injection, schedule: Q04DX003 (ip), vehicle: saline
[4] = dose: 100.0 mg/kg/injection, schedule: Q01DX001 (ip), vehicle: saline
[5] = dose: 200.0 mg/kg/injection, schedule: Q01DX001 (ip), vehicle: saline
[6] = dose: 50.0 mg/kg/injection, schedule: Q01DX001 (ip), vehicle: carboxymethylcellulose (CMC)
[7] = dose: 100.0 mg/kg/injection, schedule: Q01DX001 (ip), vehicle: carboxymethylcellulose (CMC)
[8] = dose: 100.0 mg/kg/injection, schedule: Q04DX003 (ip), vehicle: saline with Tween-80
[9] = dose: 200.0 mg/kg/injection, schedule: Q01DX001 (ip), vehicle: carboxymethylcellulose (CMC)
[10] = dose: 200.0 mg/kg/injection, schedule: Q04DX003 (ip), vehicle: saline with Tween-80
[11] = dose: 400.0 mg/kg/injection, schedule: Q01DX001 (ip), vehicle: carboxymethylcellulose (CMC)
[12] = dose: 400.0 mg/kg/injection, schedule: Q04DX003 (ip), vehicle: saline with Tween-80
[13] = dose: 100.0 mg/kg/injection, schedule: Q01DX009 (ip), vehicle: saline with Tween-80
[14] = dose: 200.0 mg/kg/injection, schedule: Q01DX009 (ip), vehicle: saline with Tween-80
[15] = dose: 400.0 mg/kg/injection, schedule: Q01DX009 (ip), vehicle: saline with Tween-80

Measured: T/C

COc1ccc(N)cc1OC
inactive: [1] 110 % of control | [2] 105 % of control | [3] 100 % of control

CC(C)C1=CC23CCC4C(C)(C(=O)O)CCCC4(C)C2CC1C1(Cl)C(Cl)=C(Cl)C(Cl)(Cl)C31Cl (stereo not drawn)
inactive: dose: 75.0 mg/kg/injection, schedule: Q01DX001 (ip), vehicle: other 89 % of control | dose: 150.0 mg/kg/injection, schedule: Q01DX001 (ip), vehicle: other 89 % of control

N#Cc1ccc([N+](=O)[O-])cc1O
inactive: dose: 50.0 mg/kg/injection, schedule: Q04DX003 (ip), vehicle: saline 96 % of control | [4] 98 % of control | [1] 95 % of control | [5] 104 % of control | [2] 96 % of control

CC1C(O)C(O)CC2COCC21 (stereo not drawn)
inactive: dose: 100.0 mg/kg/injection, schedule: Q01DX001 (ip), vehicle: saline sonified 91 % of control | dose: 200.0 mg/kg/injection, schedule: Q01DX001 (ip), vehicle: saline sonified 107 % of control | dose: 400.0 mg/kg/injection, schedule: Q01DX001 (ip), vehicle: saline sonified 113 % of control

O=C(Nc1cccc(C2=NCCN2)c1)c1cccc(C(=O)Nc2cccc(C3=NCCN3)c2)c1
inactive: dose: 15.0 mg/kg/injection, schedule: Q01DX Z (ip), vehicle: carboxymethylcellulose (CMC) 103 % of control | dose: 31.0 mg/kg/injection, schedule: Q01DX Z (ip), vehicle: carboxymethylcellulose (CMC) 92 % of control | dose: 62.0 mg/kg/injection, schedule: Q01DX Z (ip), vehicle: carboxymethylcellulose (CMC) 92 % of control

ClC(Cl)(Cl)c1nccnc1Br
inactive: dose: 12.5 mg/kg/injection, schedule: Q01DX009 (ip), vehicle: Klucel (hydroxypropylcellulose) (HPC) 111 % of control | dose: 25.0 mg/kg/injection, schedule: Q01DX009 (ip), vehicle: Klucel (hydroxypropylcellulose) (HPC) 94 % of control | dose: 50.0 mg/kg/injection, schedule: Q01DX009 (ip), vehicle: Klucel (hydroxypropylcellulose) (HPC) 94 % of control and 104 % of control

CC(c1ccccc1)N1COc2ccc3ccccc3c2C1 (stereo not drawn)
inactive: [6] 97 % of control | dose: 50.0 mg/kg/injection, schedule: Q01DX015 (ip), vehicle: carboxymethylcellulose (CMC) 96 % of control | [7] 93 % of control | dose: 100.0 mg/kg/injection, schedule: Q01DX015 (ip), vehicle: carboxymethylcellulose (CMC) 96 % of control | [8] 94 % of control | [9] 103 % of control | dose: 200.0 mg/kg/injection, schedule: Q01DX015 (ip), vehicle: carboxymethylcellulose (CMC) 97 % of control | [10] 93 % of control | [11] 104 % of control | dose: 400.0 mg/kg/injection, schedule: Q01DX015 (ip), vehicle: carboxymethylcellulose (CMC) 90 % of control | [12] 88 % of control

CC(C#N)OC(=O)c1ccccc1 (stereo not drawn)
inactive: dose: 8.75 mg/kg/injection, schedule: Q01DX009 (ip), vehicle: acetone 96 % of control | dose: 12.5 mg/kg/injection, schedule: Q01DX001 (ip), vehicle: saline 100 % of control | dose: 17.5 mg/kg/injection, schedule: Q01DX009 (ip), vehicle: acetone 95 % of control | dose: 25.0 mg/kg/injection, schedule: Q01DX001 (ip), vehicle: saline 105 % of control | dose: 35.0 mg/kg/injection, schedule: Q01DX009 (ip), vehicle: acetone 91 % of control | dose: 35.0 mg/kg/injection, schedule: Q04DX003 (ip), vehicle: saline 95 % of control | dose: 50.0 mg/kg/injection, schedule: Q01DX009 (ip), vehicle: acetone 94 % of control

O=C(c1ccccc1)c1ccn[nH]1
inactive: dose: 100.0 mg/kg/injection, schedule: Q01DX001 (ip), vehicle: Klucel (hydroxypropylcellulose) (HPC) 106 % of control | dose: 200.0 mg/kg/injection, schedule: Q01DX001 (ip), vehicle: Klucel (hydroxypropylcellulose) (HPC) 103 % of control | dose: 400.0 mg/kg/injection, schedule: Q01DX001 (ip), vehicle: Klucel (hydroxypropylcellulose) (HPC) 108 % of control

Cc1ccc(S(=O)(=O)OC2CCC(C(C)(C)C)CC2Cl)cc1 (stereo not drawn)
inactive: dose: 100.0 mg/kg/injection, schedule: Q01DX009 (ip), vehicle: Klucel (hydroxypropylcellulose) (HPC) 98 % of control | [1] 98 % of control | dose: 200.0 mg/kg/injection, schedule: Q01DX009 (ip), vehicle: Klucel (hydroxypropylcellulose) (HPC) 108 % of control | [2] 98 % of control | dose: 400.0 mg/kg/injection, schedule: Q01DX009 (ip), vehicle: Klucel (hydroxypropylcellulose) (HPC) 98 % of control | [3] 94 % of control

O=[N+]([O-])c1ccc(F)c(Cl)c1
inactive: dose: 100.0 mg/kg/injection, schedule: Q01DX009 (ip), vehicle: other 98 % of control | dose: 100.0 mg/kg/injection, schedule: Q04DX003 (ip), vehicle: other 105 % of control | dose: 200.0 mg/kg/injection, schedule: Q04DX003 (ip), vehicle: other 100 % of control | dose: 400.0 mg/kg/injection, schedule: Q04DX003 (ip), vehicle: other 90 % of control

Cc1ccc(S(=O)(=O)N=P(c2ccccc2)(c2ccccc2)c2ccccc2)cc1
inactive: [6] 90 % of control | [7] 95 % of control | [8] 86 % of control | [9] 92 % of control | [10] 86 % of control | [11] 86 % of control | [12] 91 % of control

O=c1ccn(C2OC(CF)C(O)C2O)c(=O)[nH]1 (stereo not drawn)
inactive: dose: 100.0 mg/kg/injection, schedule: Q01DX005 (ip), vehicle: saline 104 % of control | dose: 100.0 mg/kg/injection, schedule: Q04DX003 (ip), vehicle: Klucel (hydroxypropylcellulose) (HPC) 106 % of control | dose: 200.0 mg/kg/injection, schedule: Q01DX005 (ip), vehicle: saline 104 % of control | dose: 200.0 mg/kg/injection, schedule: Q04DX003 (ip), vehicle: Klucel (hydroxypropylcellulose) (HPC) 110 % of control | dose: 400.0 mg/kg/injection, schedule: Q04DX003 (ip), vehicle: Klucel (hydroxypropylcellulose) (HPC) 101 % of control

COc1ccc2c(c1)CC[C@@H]1[C@@H]2CC[C@]2(C)[C@@H](O)C(=O)C[C@@H]12
inactive: [13] 90 % of control | [1] 94 % of control | [14] 92 % of control | [2] 88 % of control | [15] 90 % of control | [3] 91 % of control

CC(C)=CC(=O)OC1C2C(CC(C)C3C(O)CC(=O)C13C)OC(=O)C2C (stereo not drawn)
inactive: [4] 107 % of control | [5] 100 % of control | dose: 400.0 mg/kg/injection, schedule: Q01DX001 (ip), vehicle: saline 97 % of control

Cc1nc2ccccc2c(C(=O)O)c1C
inactive: [1] 102 % of control | [2] 96 % of control | [3] 96 % of control

C[n+]1ccc(/C=C/c2c[nH]c3ccccc23)cc1
inactive: dose: 6.25 mg/kg/injection, schedule: Q04DX003 (ip), vehicle: saline with Tween-80 92 % of control | dose: 12.5 mg/kg/injection, schedule: Q04DX003 (ip), vehicle: saline with Tween-80 104 % of control | dose: 25.0 mg/kg/injection, schedule: Q04DX003 (ip), vehicle: saline with Tween-80 97 % of control

O=c1c2ccc(Cl)cc2[nH]c(=S)n1-c1ccc(Cl)cc1
inactive: [13] 89 % of control | [14] 89 % of control | [15] 87 % of control

CC(=O)CC(SCCSCCSC(CC(C)=O)c1ccccc1)c1ccccc1 (stereo not drawn)
inactive: [6] 89 % of control | [7] 89 % of control | [9] 97 % of control | [11] 97 % of control

O=C(Nc1cccc([N+](=O)[O-])c1)c1ccc(Cl)cc1Cl
inactive: [8] 102 % of control | [10] 93 % of control | [12] 98 % of control

CC(=O)CCCC(C)C1CCC2C3CC=C4CC(O)CCC4(C)C3CCC12C (stereo not drawn)
inactive: dose: 75.0 mg/kg/injection, schedule: Q01DX009 (sc), vehicle: steriod suspending solution 99 % of control | dose: 100.0 mg/kg/injection, schedule: Q01DX001 (sc), vehicle: steriod suspending solution 105 % of control | dose: 150.0 mg/kg/injection, schedule: Q01DX009 (sc), vehicle: steriod suspending solution 94 % of control | dose: 200.0 mg/kg/injection, schedule: Q01DX001 (sc), vehicle: steriod suspending solution 101 % of control | dose: 300.0 mg/kg/injection, schedule: Q01DX009 (sc), vehicle: steriod suspending solution 92 % of control | dose: 400.0 mg/kg/injection, schedule: Q01DX001 (sc), vehicle: steriod suspending solution 101 % of control
